Measured values taken from ChEMBL document CHEMBL4732115, “Discovery of novel cell-penetrating and tumor-targeting peptide-drug conjugate (PDC) for programmable delivery of paclitaxel and cancer treatment” (Eur J Med Chem, 2021).
pIC50: −log10 of the molar value. The source made the active and inactive calls. The rule behind the calls is not given here. Peptide text beside a SMILES is read from it. * marks the point of attachment. X1 = CC(=O)O[C@H]1C(=O)[C@@]2(C)[C@H]([C@H](OC(=O)c3ccccc3)[C@]3(O)C[C@H](OC(=O)[C@H](OC(=O)OCCS*)[C@@H](NC(=O)c4ccccc4)c4ccccc4)C(C)=C1C3(C)C)[C@]1(OC(C)=O)CO[C@@H]1C[C@@H]2O; X2 = NCCCC[C@H](N*)C(=O)NC(=O)C1CCC(=O)N1

How the values were obtained:
[1] = Drug uptake in human MCF7 cells at 20 nM measured after 4 hrs in presence of MMP inhibitor ilomastat by LC-MS analysis; format: ADME, cell-based; settings: mcf7, 4 h, 0.02 µM
MCF7 [2] = test: Cytotoxicity against human MCF7 cells assessed as reduction in cell viability measured after 48 hrs by MTT assay; format: functional, cell-based; settings: MCF7, 48 h
[3] = Drug conversion in heart of BALB/c nude mouse xenografted with human MCF7 cells assessed as T2-PTX formation at 8 to 12 umol/kg, ip measured after 2 hrs by LC-MS analysis; format: ADME, organism-based; settings: in vivo, dose 8-12 µmol/kg
A2780 = test: Cytotoxicity against human A2780 cells assessed as reduction in cell viability measured after 48 hrs by MTT assay; format: functional, cell-based; settings: A2780, 48 h
[4] = Neurotoxicity in BALB/c mouse assessed as change in histamine level at 12 umol/kg, ip administered every two days for 14 days measured post last dose by LC-MS analysis; format: toxicity, organism-based; settings: in vivo, 336 h, dose 12 µmol/kg, time 14 day
Tubulin (Homo sapiens) = Tubulin (Homo sapiens) (UniProt P68371+Q9H4B7+P0DPH7+P68366+Q13509+Q71U36+P04350+Q3ZCM7+P07437+P68363+Q9BQE3+Q6PEY2+Q13885+Q9BVA1+Q9BUF5); test: Inhibition of microtubule depolymerization in human MCF7 cells at 1.8 nM measured after 12 hrs by immunostaining based confocal microscopic analysis; format: cell-based
[5] = Neurotoxicity in BALB/c mouse assessed as increase in pain sensitivity at 12 umol/kg, ip administered every two days for 14 days by hot water tail immersion test; format: toxicity, organism-based; settings: in vivo, 336 h, dose 12 µmol/kg, time 14 day
[6] = Half life in human plasma at 50 uM by LC-MS analysis; format: ADME, cell-free
MCF7 [7] = test: Induction of mitochondrial membrane potential loss in human MCF7 cells at IC50 measured after 4 hrs by JC-1 staining based flow cytometry; format: functional, cell-based
MCF7 [8] = test: Cytotoxicity against human MCF7 cells assessed as reduction in cell viability measured after 48 hrs in presence of MMP inhibitor ilomastat by MTT assay; format: functional, cell-based
MCF7 [9] = test: Antimigratory activity against human MCF7 cells at 1.8 nM measured after 48 hrs by scratch wound-healing assay; format: functional, cell-based
MCF7 [10] = test: Cytotoxicity against human MCF7 cells assessed as reduction in cell viability measured after 48 hrs in presence of LHRH by MTT assay; format: functional, cell-based
[11] = Drug uptake in human MCF7 cells at 20 nM measured after 4 hrs in presence of LHRH by LC-MS analysis; format: ADME, cell-based; settings: mcf7, 4 h, 0.02 µM
MCF7 [12] = test: Antitumor activity against human MCF7 cells xenografted in BALB/c nude mouse assessed as reduction in tumor weight at 8 umol/kg, ip administered every two days for two weeks relative to control; format: functional; design: scale not given: the % may be the effect or the level left; settings: dose 8 µmol/kg; time 2 weeks
[13] = Toxicity in human MCF7 cells xenografted in BALB/c nude mouse assessed as morphological changes in spleen at 8 to 12 umol/kg, ip administered every two days for two weeks measured post last dose by H and E staining based histological analysis; format: organism-based; settings: in vivo, 336 h, dose 8-12 µmol/kg, time 2 weeks
[14] = Drug uptake in human MCF7 cells at 20 nM measured after 4 hrs by LC-MS analysis; format: ADME, cell-based; settings: mcf7, 4 h, 0.02 µM
[15] = Neurotoxicity in BALB/c mouse assessed as change in histidine level at 12 umol/kg, ip administered every two days for 14 days measured post last dose by LC-MS analysis; format: toxicity, organism-based; settings: in vivo, 336 h, dose 12 µmol/kg, time 14 day
HT-29 = test: Cytotoxicity against human HT-29 cells assessed as reduction in cell viability measured after 48 hrs by MTT assay; format: functional, cell-based; settings: HT-29, 48 h
[16] = Drug uptake in human MCF7 cells at 20 nM measured after 4 hrs in presence of MMP inhibitor ilomastat and LHRH by LC-MS analysis; format: ADME, cell-based; settings: mcf7, 4 h, 0.02 µM
[17] = Toxicity in human MCF7 cells xenografted in BALB/c nude mouse assessed as morphological changes in kidney at 8 to 12 umol/kg, ip administered every two days for two weeks measured post last dose by H and E staining based histological analysis; format: organism-based; settings: in vivo, 336 h, dose 8-12 µmol/kg, time 2 weeks
[18] = Drug conversion in heart of BALB/c nude mouse xenografted with human MCF7 cells assessed as PTX formation at 8 to 12 umol/kg, ip measured after 2 hrs by LC-MS analysis; format: ADME, organism-based; settings: in vivo, dose 8-12 µmol/kg
[19] = Drug conversion in serum of BALB/c nude mouse xenografted with human MCF7 cells assessed as T2-PTX formation at 8 to 12 umol/kg, ip measured after 2 hrs by LC-MS analysis; format: ADME, organism-based; settings: in vivo, dose 8-12 µmol/kg
Erythrocyte = test: Hemolytic activity against human erythrocytes up to 80 uM measured after 1 hr; format: ADME, cell-based
[20] = Toxicity in human MCF7 cells xenografted in BALB/c nude mouse assessed as morphological changes in heart at 8 to 12 umol/kg, ip administered every two days for two weeks measured post last dose by H and E staining based histological analysis; format: organism-based; settings: in vivo, 336 h, dose 8-12 µmol/kg, time 2 weeks
[21] = Neurotoxicity in BALB/c mouse assessed as change in vanillylmandelic acid level at 12 umol/kg, ip administered every two days for 14 days measured post last dose by LC-MS analysis; format: toxicity, organism-based; settings: in vivo, 336 h, dose 12 µmol/kg, time 14 day
MCF7 [22] = test: Antitumor activity against human MCF7 cells xenografted in BALB/c nude mouse assessed as reduction in tumor volume at 12 umol/kg, ip administered every two days for two weeks relative to control; format: functional; design: scale not given: the % may be the effect or the level left; settings: dose 12 µmol/kg; time 2 weeks
HeLa = test: Cytotoxicity against human HeLa cells assessed as reduction in cell viability measured after 48 hrs by MTT assay; format: functional, cell-based
[23] = Drug conversion in tumor of BALB/c nude mouse xenografted with human MCF7 cells assessed as T2-PTX formation at 8 to 12 umol/kg, ip measured after 2 hrs by LC-MS analysis; format: ADME, organism-based, Neoplasm; settings: in vivo, dose 8-12 µmol/kg
[24] = Neurotoxicity in BALB/c mouse assessed as change in GABA level at 12 umol/kg, ip administered every two days for 14 days measured post last dose by LC-MS analysis; format: toxicity, organism-based; settings: in vivo, 336 h, dose 12 µmol/kg, time 14 day

- Drug uptake [1]: Active
- Drug metabolism [3]: Metabolite_Notdetected
- inhibition (Tubulin (Homo sapiens)): Active
- half-life at 50 µM [6]: 2 h
- Drug uptake [11]: Active
- Drug uptake [14]: Active
- Drug uptake [16]: Active
- Drug metabolism [18]: Metabolite_Notdetected
- Drug metabolism [19]: Metabolite_Notdetected
- Drug metabolism [23]: Metabolite_Detected
SMILES: CC(=O)O[C@H]1C(=O)[C@@]2(C)[C@H]([C@H](OC(=O)c3ccccc3)[C@]3(O)C[C@H](OC(=O)[C@H](OC(=O)OCCSSC[C@H](N)C(=O)N[C@@H](CC(C)C)C(=O)N[C@@H](CC(C)C)C(=O)N[C@@H](CCCCN)C(=O)N[C@@H](CCCNC(=N)N)C(=O)N[C@@H](Cc4ccccc4)C(=O)N[C@@H](Cc4ccccc4)C(=O)N[C@@H](CCCCN)C(=O)N[C@@H](CCCCN)C(=O)N[C@@H](Cc4ccccc4)C(=O)NCC(=O)N[C@@H](C)C(=O)N[C@@H](CC(C)C)C(=O)NCC(=O)N[C@@H](CC(C)C)C(=O)N4CCC[C@H]4C(=O)NCC(=O)N4CCC[C@H]4C(=O)N[C@@H](CCCNC(=N)N)C(=O)N[C@@H](CC(C)C)C(=O)NCC(=O)N[C@@H](Cc4ccc(O)cc4)C(=O)N[C@@H](CO)C(=O)N[C@@H](Cc4c[nH]c5ccccc45)C(=O)N[C@@H](CCCCN)C(=O)NC(=O)C4CCC(=O)N4)[C@@H](NC(=O)c4ccccc4)c4ccccc4)C(C)=C1C3(C)C)[C@]1(OC(C)=O)CO[C@@H]1C[C@@H]2O (some centres undefined) (H-C(X1)LLKRFFKKFGALGLPGPRLGYSW-X2)
- pIC50 (MCF7 [2]): 8.42
- pIC50 (A2780): 8.08
- Activity [4]: Non-Toxic
- Activity [5]: Non-Toxic
- Activity (MCF7 [7]): Active
- Activity (MCF7 [8]): inactive
- Activity (MCF7 [9]): Active
- Activity (MCF7 [10]): inactive
- Activity (MCF7 [12]): 67.1%
- Activity [13]: Non-Toxic
- Activity [15]: Non-Toxic
- pIC50 (HT-29): 8.25
- Activity [17]: Non-Toxic
- Activity (Erythrocyte): Non-Toxic
- Activity [20]: Non-Toxic
- Activity [21]: Non-Toxic
- Activity (MCF7 [22]): 90.1%
- pIC50 (HeLa): 7.69
- Activity [24]: Non-Toxic
